# Data published in PMC9184620, “TAS1553, a small molecule subunit interaction inhibitor of ribonucleotide reductase, exhibits antitumor activity by causing DNA replication stress” (Communications Biology, 2022).
# Tests used:
# MLL-AF9 AML cells = test: Survival in systemic AML model (mice bone marrow cells harboring human MLL-AF9 fusion gene); format: in vivo, mouse; conditions: 100 mg/kg daily
# Description: (§1) Next, we evaluated the antitumor activity of a high-dose administration of TAS1553 and cytarabine in rats bearing MV-4-11 xenografts. […] The rats were treated with cytarabine for 5 days at 16 and 32 mg/kg. […] In addition to the hematologic tumor, we evaluated the antitumor activity of TAS1553 in mice implanted with HCC38 cell line as a solid tumor model. […] Finally, TAS1553 was evaluated for its survival benefit in a mouse model. To achieve this, we established mice bone marrow cells harboring the human MLL-AF9 fusion gene, which is known as a driver gene for AML in humans as well as mice[48]. Mice were transplanted with the cells through the tail vein and the treatment with TAS1553 was started 11 days post-implantation.
# HCC38 and MV-4-11 cells = test: Immunoblotting of DNA replication stress and apoptosis markers; format: cell-based, human; conditions: both cell lines
# Description: Because dATP is a critical metabolite for DNA replication, we next examined whether TAS1553 caused DNA replication stress. We evaluated phosphorylation of Chk1 at Ser345 in HCC38 and MV-4-11 cells by treating them with TAS1553 for 2 h. […] Because phosphorylated RPA2 at Thr21 binds to single-strand DNA at the stalled replication fork[42], TAS1553 may cause the replication fork stalling. To test this possibility, we analyzed the nuclear localization of phosphorylated RPA2 at Thr21.
# Next, we examined the effect of TAS1553 on apoptosis induction in HCC38 and MV-4-11 cells. We treated TAS1553 at 1 or 10 µmol/L for 24 h and analyzed the time-dependent change of cleaved PARP and cleaved caspase-3 (Fig. 2g). Compared with control cells (0 h), phosphorylation of Chk1 at Ser345 was increased after 1 h of TAS1553 treatment at 1 and 10 μmol/L in both cell lines. Phosphorylation of RPA2 was also detected after 2 h of treatment with TAS1553 at 10 μmol/L. Following the induction of replication stress and fork stalling, cleaved PARP and cleaved caspase-3 levels were increased in both cell lines after 4 h of TAS1553 treatment at 10 μmol/L or after 8 h of treatment at 1 μmol/L.
# Immunoblotting analysis was performed as reported previously. […] Proteins were separated by SDS-PAGE and analyzed by Western blotting. […] The signals were detected with the ImageQuant LAS 4010 (GE Healthcare UK Ltd.).
# [1] = molecular target: T1, interaction between R1 and R2 (human RNR) (Homo sapiens, UniProt P23921); test: AlphaLISA binding assay (interaction between His-R1 and GST-R2); conditions: recombinant R1 and R2; mean ± SD
# T1 construct: host or cells: Escherichia coli (His-R1)
# T1 sequence (P23921 1-792): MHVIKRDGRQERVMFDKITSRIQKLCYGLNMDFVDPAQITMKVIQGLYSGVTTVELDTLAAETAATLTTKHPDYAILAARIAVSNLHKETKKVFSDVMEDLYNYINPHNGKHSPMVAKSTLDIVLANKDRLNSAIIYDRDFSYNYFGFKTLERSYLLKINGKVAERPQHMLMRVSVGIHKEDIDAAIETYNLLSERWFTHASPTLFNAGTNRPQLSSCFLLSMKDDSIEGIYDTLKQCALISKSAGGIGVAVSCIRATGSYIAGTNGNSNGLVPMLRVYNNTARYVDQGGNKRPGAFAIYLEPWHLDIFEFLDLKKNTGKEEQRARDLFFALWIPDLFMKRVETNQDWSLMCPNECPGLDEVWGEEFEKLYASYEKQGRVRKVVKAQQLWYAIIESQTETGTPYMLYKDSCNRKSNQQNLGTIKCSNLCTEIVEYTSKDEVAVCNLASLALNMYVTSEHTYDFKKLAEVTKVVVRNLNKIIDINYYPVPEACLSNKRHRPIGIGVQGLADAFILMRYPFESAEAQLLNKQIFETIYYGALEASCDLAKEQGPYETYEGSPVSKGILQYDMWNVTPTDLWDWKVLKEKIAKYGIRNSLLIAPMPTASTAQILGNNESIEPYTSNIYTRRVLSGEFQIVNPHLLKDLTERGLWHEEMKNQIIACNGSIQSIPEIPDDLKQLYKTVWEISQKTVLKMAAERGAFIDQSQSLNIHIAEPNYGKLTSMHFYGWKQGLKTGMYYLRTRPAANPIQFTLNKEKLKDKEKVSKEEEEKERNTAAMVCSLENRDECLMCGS
# MV-4-11 xenograft = test: Antitumor activity in rats bearing MV-4-11 xenografts; format: in vivo
# Description: as §1, with “mice[48].” for “mice[48]. Mice were transplanted with the cells through the tail vein and the treatment with TAS1553 was started 11 days post-implantation.”
# For the subcutaneous implantation model of MV-4-11, F344/NJcl-rnu/rnu rats were irradiated with X-ray (4 Gy) to improve the efficiency of xenograft implantation. Two days after X-ray irradiation, MV-4-11 cells suspended in PBS with 50 vol% Matrigel were inoculated into the rats (2 × 10^7 cells/animal). In the mice subcutaneous implantation model, HCC38 cells suspended same as above were inoculated into male BALB/cAJcl-nu/nu mice (1 × 10^7 cells /body). […] Antitumor activity and body weight change were evaluated as previously reported. Dunnett test using the SAS software package in EXSUS (CAC Croit) was used to compare the tumor volume (P < 0.05).
# [2] = 400 mg/kg oral once daily for 14 days
compound,measurement,setting,value
"Cc1ccc(F)c([C@@H](C)[C@H](NS(=O)(=O)c2ccc(Cl)cc2C(N)=O)c2n[nH]c(=O)o2)c1C [TAS1553, 5-chloro-2-{N-[(1S,2R)-2-(6-fluoro-2,3-dimethylphenyl)-1-(5-oxo-4,5-dihydro-1,3,4-oxadiazol-2-yl)propyl]sulfamoyl}benzamide]",median survival time,MLL-AF9 AML cells; start 11 days post-implantation,75.5 days
same,increase in the life span,MLL-AF9 AML cells; versus control,34.8%
same,phosphorylation of Chk1 at Ser345,"HCC38 and MV-4-11 cells; 1 µmol/L, 2 h",markedly induced
same,cleaved PARP and cleaved caspase-3 levels,HCC38 and MV-4-11 cells; after 4 h at 10 μmol/L or 8 h at 1 μmol/L,increased
same,IC50,[1],0.0396 ± 0.0042 µM
same,T/C (mean tumor volume treated/control) on Day 15,MV-4-11 xenograft; 50 mg/kg oral once daily for 14 days,52.0%
same,T/C (mean tumor volume treated/control) on Day 15,MV-4-11 xenograft; 100 mg/kg oral once daily for 14 days,45.0%
same,T/C (mean tumor volume treated/control) on Day 15,MV-4-11 xenograft; 200 mg/kg oral once daily for 14 days,29.4%
same,body weight change,MV-4-11 xenograft; [2],without a reduction in body weight
same,tumor growth outcome,MV-4-11 xenograft; [2],tumor disappearance in all the treated animals
same,body weight change,"MV-4-11 xenograft; 50, 100, 200 mg/kg oral once daily for 14 days",none of the groups showed any dramatic weight loss
